pIC50: −log10 of the molar value. Starred links: 1 amine or outer side, 2 acyl side, 3 side chain; linkers in the order of their positions; H or OH if unused. Non-standard residues stand in square brackets, D forms with d. Residues, ends and D or L forms follow the SMILES beside them. *: point of attachment. Dolaproine(4S-N3) = CO[C@H]([C@@H](C)C(=O)[*:2])[C@@H]1C[C@H](N=[N+]=[N-])CN1[*:1]; X2 = CO[C@H]([C@@H](C)C(=O)[*:2])[C@@H]1C[C@@H]2C[C@@H]2N1[*:1]; NMeVal(N-(CH2)3COOH) = CC(C)[C@@H](C(=O)*)N(C)CCCC(=O)O; Dolaproine = CO[C@@H]([C@@H]1CCCN1)[C@@H](C)C(=O)O; Abu(3S-N3) = C[C@H](N=[N+]=[N-])[C@H](N)C(=O)O; Dil = CC[C@H](C)[C@H](NC)[C@@H](CC(=O)O)OC; Phe(2-Cl) = N[C@@H](Cc1ccccc1Cl)C(=O)O; Phe(2-F) = N[C@@H](Cc1ccccc1F)C(=O)O; NMe2Val = CC(C)[C@@H](C(=O)*)N(C)C; Oxazinan2yl(1,2) = C1CCN(*)OC1; X4 = C1=C[C@H]2CC[C@@H]1N(*)O2; NMeV = CN[C@H](C(=O)O)C(C)C; NHOH = ON*
Legend:
BT-474 = assay: Anticancer activity against human BT-474 assessed as cell growth inhibition incubated for 4 days by WST-8 assay; assay type: functional; details: BT-474, 96 h, time 4 day
L1210 = assay: Cytotoxicity against mouse L1210 cells assessed as cell growth inhibition measured after 24 hrs; assay type: functional, cell-based; details: L1210, 24 h
MOLM-13 = assay: Cytotoxicity against human MOLM-13 cells assessed as cell growth inhibition; assay type: functional, cell-based
H3396 = assay: Cytotoxicity against human H3396 cells assessed as cell growth inhibition; assay type: functional, cell-based
SK-BR-3 = assay: Cytotoxicity against human SK-BR-3 cells assessed as cell growth inhibition incubated for 72 hrs by CellTiter-Glo assay; assay type: functional
KARPAS-299 = assay: Cytotoxicity against human KARPAS-299 cells assessed as reduction in cell viability incubated for 5 days by Presto blue dye based assay; assay type: functional; details: KARPAS-299, 120 h
[1] = system: Panel NCI-60 (60 carcinoma cell lines); assay: Cytotoxicity against human Panel NCI-60 (60 carcinoma cell lines) assessed as cell growth inhibition; assay type: functional, cell-based
HT-29 = assay: Cytotoxicity against human HT-29 cells assessed as cell growth inhibition; assay type: functional, cell-based

Question: With `CC[C@H](C)[C@@H]([C@@H](CC(=O)N1CC(=O)C[C@H]1[C@H](OC)[C@@H](C)C(=O)NCCc1ccccc1)OC)N(C)C(=O)[C@@H](NC(=O)[C@H](C(C)C)N(C)C)C(C)C` as the molecule, how does the GI50 (BT-474) read?
Answer: 5.23 nM

Question: `CC[C@H](C)[C@@H]([C@@H](CC(=O)N1CCC[C@H]1[C@@H](OC)[C@@H](C)C(=O)N[C@@H](Cc1ccccc1)c1nccs1)OC)N(C)C(=O)[C@@H](NC(=O)[C@H](C(C)C)N(C)C)C(C)C` was tested. Which pIC50 (L1210) did it give?
Answer: < 5.00

Question: `CC[C@H](C)[C@@H]([C@@H](CC(=O)N1C[C@@H](N=[N+]=[N-])C[C@H]1[C@H](OC)[C@@H](C)C(=O)N[C@@H](Cc1ccccc1)C(=O)OC)OC)N(C)C(=O)[C@@H](NC(=O)[C@@H](NC)C(C)C)C(C)C` (H-[NMeV]V[Dil][Dolaproine(4S-N3)]F-OMe) was tested. Which GI50 (MOLM-13) did it give?
Answer: 0.224 nM

Question: With `CC[C@H](C)[C@@H]([C@@H](CC(=O)N1CCC[C@H]1[C@H](OC)[C@@H](C)C(=O)N[C@@H](Cc1ccccc1)C(=O)OC)OC)N(C)C(=O)[C@@H](NC(=O)[C@@H](NC)C(C)C)C(C)C` (H-[NMeV]V[Dil][Dolaproine]F-OMe) as the molecule, how does the pIC50 (H3396) read?
Answer: > 12.00

Question: Which GI50 (SK-BR-3) does the source give for `CC[C@H](C)[C@@H]([C@@H](CC(=O)N1CCC[C@H]1[C@H](OC)[C@@H](C)C(=O)N[C@@H](Cc1ccccc1F)C(=O)O)OC)N(C)C(=O)[C@@H](NC(=O)[C@@H](NC)C(C)C)C(C)C` (H-[NMeV]V[Dil][Dolaproine][Phe(2-F)]-OH) here?
Answer: 81.6 nM

Question: `CC[C@H](C)[C@@H]([C@@H](CC(=O)N1[C@H]2C[C@H]2C[C@H]1[C@H](OC)[C@@H](C)C(=O)N[C@@H](Cc1ccccc1Cl)C(=O)O)OC)N(C)C(=O)[C@@H](NC(=O)[C@@H](NC)C(C)C)C(C)C` (H-[NMeV]V[Dil][X2][Phe(2-Cl)]-OH) was tested. Which GI50 (SK-BR-3) did it give?
Answer: 1.06 nM

Question: For `CC[C@H](C)[C@@H]([C@@H](CC(=O)N1C[C@@H](N=[N+]=[N-])C[C@H]1[C@H](OC)[C@@H](C)C(=O)N[C@@H](Cc1ccccc1)C(=O)OC)OC)N(C)C(=O)[C@@H](NC(=O)[C@@H](NC)C(C)C)[C@H](C)N=[N+]=[N-]` (H-[NMeV][Abu(3S-N3)][Dil][Dolaproine(4S-N3)]F-OMe), which GI50 (MOLM-13) is on record?
Answer: 0.279 nM

Question: How did the pIC50 (KARPAS-299) turn out when `CC[C@H](C)[C@@H]([C@@H](CC(=O)N1CCC[C@H]1[C@H](OC)[C@@H](C)C(=O)N[C@@H](Cc1ccccc1)C(N)=O)OC)N(C)C(=O)[C@@H](NC(=O)[C@@H](NC)C(C)C)[C@H](C)N=[N+]=[N-]` (H-[NMeV][Abu(3S-N3)][Dil][Dolaproine]F-NH2) was run?
Answer: 9.22

Question: `CC[C@H](C)[C@@H]([C@@H](CC(=O)N1[C@H]2C[C@H]2C[C@H]1[C@H](OC)[C@@H](C)C(=O)N[C@@H](Cc1ccccc1)C(=O)O)OC)N(C)C(=O)[C@@H](NC(=O)[C@@H](NC)C(C)C)C(C)C` (HELM PEPTIDE1{[meV].V.[CC[C@H](C)[C@@H]([C@@H](CC(=O)[*:2])OC)N(C)[*:1]].[CO[C@H]([C@@H](C)C(=O)[*:2])[C@@H]1C[C@@H]2C[C@@H]2N1[*:1]].F}$$$$V2.0) was tested. Which GI50 (SK-BR-3) did it give?
Answer: 1.11 nM

Question: For `CC[C@H](C)[C@@H]([C@@H](CC(=O)N1C[C@@H](F)C[C@H]1[C@H](OC)[C@@H](C)C(=O)N[C@@H](Cc1ccccc1)C(=O)O)OC)N(C)C(=O)[C@@H](NC(=O)[C@@H](NC)C(C)C)C(C)C` (HELM PEPTIDE1{[meV].V.[CC[C@H](C)[C@@H]([C@@H](CC(=O)[*:2])OC)N(C)[*:1]].[CO[C@H]([C@@H](C)C(=O)[*:2])[C@@H]1C[C@H](F)CN1[*:1]].F}$$$$V2.0), which GI50 (SK-BR-3) is on record?
Answer: 81.7 nM

Question: `CC[C@H](C)[C@@H]([C@@H](CC(=O)N1CCC[C@H]1[C@H](OC)[C@@H](C)C(=O)N[C@@H](Cc1ccccc1)C(=O)O)OC)N(C)C(=O)[C@@H](NC(=O)[C@H](C(C)C)N(C)C)C(C)C` (NMe2Val-V[Dil][Dolaproine]F-OH) was tested. Which pIC50 [1] did it give?
Answer: 6.98

Question: `CC[C@H](C)[C@@H]([C@@H](CC(=O)N1CCC[C@H]1[C@H](OC)[C@@H](C)C(=O)N[C@@H](Cc1ccccc1)C(=O)OC)OC)N(C)C(=O)[C@@H](NC(=O)[C@H](C(C)C)N(C)C)C(C)C` (NMe2Val-V[Dil][Dolaproine]F-OMe) was tested. Which GI50 [1] did it give?
Answer: 0.2 nM

Question: How did the pIC50 (HT-29) turn out when `CC[C@H](C)[C@@H]([C@@H](CC(=O)N1CCC[C@H]1[C@H](OC)[C@@H](C)C(=O)N[C@@H](Cc1ccccc1)C(=O)N1O[C@H]2C=C[C@@H]1CC2)OC)N(C)C(=O)[C@@H](NC(=O)[C@H](C(C)C)N(C)C)C(C)C` (NMe2Val-V[Dil][Dolaproine]F-X4) was run?
Answer: 9.30

Question: How did the GI50 (SK-BR-3) turn out when `CC[C@H](C)[C@@H]([C@@H](CC(=O)N1CCC[C@H]1[C@H](OC)[C@@H](C)C(=O)N[C@@H](CC(C)C)C(=O)NO)OC)N(C)C(=O)[C@@H](NC(=O)[C@H](C(C)C)N(C)C)C(C)C` (NMe2Val-V[Dil][Dolaproine]L-{NHOH}) was run?
Answer: 3 nM

Question: `CC[C@H](C)[C@@H]([C@@H](CC(=O)N1CCC[C@H]1[C@H](OC)[C@@H](C)C(=O)N[C@@H](Cc1c[nH]c2ccccc12)C(=O)N1CCCCO1)OC)N(C)C(=O)[C@@H](NC(=O)[C@H](C(C)C)N(C)C)C(C)C` (NMe2Val-V[Dil][Dolaproine]W-{Oxazinan2yl(1,2)}) was tested. Which pIC50 (HT-29) did it give?
Answer: 9.30

Question: `CC[C@H](C)[C@@H]([C@@H](CC(=O)N1CCC[C@H]1[C@H](OC)[C@@H](C)C(=O)N[C@@H](Cc1c[nH]c2ccccc12)C(N)=O)OC)N(C)C(=O)[C@@H](NC(=O)[C@H](C(C)C)N(C)CCCC(=O)O)C(C)C` ({NMeVal(N-(CH2)3COOH)}-V[Dil][Dolaproine]W-NH2) was tested. Which pIC50 (HT-29) did it give?
Answer: 7.80

Question: `CC[C@H](C)[C@@H]([C@@H](CC(=O)N1CCC[C@H]1[C@H](OC)[C@@H](C)C(=O)NCCc1ccccc1)OC)N(C)C(=O)[C@@H](NC(=O)[C@H](C(C)C)N(C)C)C(C)C` [SOBLIDOTIN] was tested. Which GI50 [1] did it give?
Answer: 0.49 nM
